Here are results for two compounds from patent US20130096100A1, “DI(ARYLAMINO)ARYL COMPOUND” (ASTELLAS PHARMA INC., priority 2007, published 2013).

One assay concerns NCI-H2228 cells (tumor). In words: Antitumor test (in vivo) on NCI-H2228 cells (Test Example 8). As to conditions: oral 3 mg/kg once a day for 14 days, NOD/SCID mice; tumor volume. As to the method:
3×10^6 cells of NCI-H2228 cells suspended in PBS were inoculated subcutaneously by injection to the back of 5 weeks old male NOD/SCID mice (Charles River Japan, Inc.). After 3 weeks of the inoculation, the administration of test compounds was initiated. The test was conducted in the solvent group and test compound groups, 6 animals per group. The test compounds were each dissolved in a solvent composed of 10% 1-methyl-2-pyrrolidinone (SIGMA-ALDRICH Inc.)/90% polyethylene glycol 300 (Fluka Inc.) and administered orally at a dose of 3 mg/kg. Administrations were performed once a day for 14 days, and body weight and tumor size were measured every other day. Tumor volume was calculated using the following formula.
[Tumor volume (mm^3)]=[Tumor major axis (mm)]×[tumor minor axis (mm)]^2×0.5

Assay [1] addresses T1, Mutant EGFR (L858R) protein (Homo sapiens, UniProt P00533, L858R).
T1 construct: purchased Cana Biosciences Inc., Japan (sic; Carna Biosciences)
The assay is described as follows: Inhibitory activity against the kinase activity of mutant EGFR (L858R) protein (Test Example 2). It counts as biochemical. The settings on record: ATP 5 μM, reaction 1 hour, HTRF KinEASE-TK. As to the method: (§1) The ATP concentration used was 5 μM. Another reaction solution was prepared to contain the enzyme protein but no test compound (in which the solvent DMSO alone was added at 0.4% in place of the test compound), followed by reaction in the same manner with or without ATP addition. […] The concentration causing 50% inhibition (IC50) was calculated for each test compound by the logistic regression method.
For orientation: TR-FRET usually uses a lanthanide donor and a delayed reading to cut background.

The test system of assay [2] is human non-small cell lung cancer cell line NCI-H2228 cells (EML4-ALK fusion protein-expressing cells). In words: Inhibitory effect against anchorage-independent cell growth of NCI-H2228 cells (Test Example 3). Type of assay: cell-based. The settings on record: 120 h, spheroid plate, 5 days, CellTiter-Glo. On the technique in general: In ATP-based viability assays light output follows the ATP content of the culture.

For another assay, the target named is T2, MUSK (Homo sapiens, UniProt O15146).
T2 sequence (O15146 24-869): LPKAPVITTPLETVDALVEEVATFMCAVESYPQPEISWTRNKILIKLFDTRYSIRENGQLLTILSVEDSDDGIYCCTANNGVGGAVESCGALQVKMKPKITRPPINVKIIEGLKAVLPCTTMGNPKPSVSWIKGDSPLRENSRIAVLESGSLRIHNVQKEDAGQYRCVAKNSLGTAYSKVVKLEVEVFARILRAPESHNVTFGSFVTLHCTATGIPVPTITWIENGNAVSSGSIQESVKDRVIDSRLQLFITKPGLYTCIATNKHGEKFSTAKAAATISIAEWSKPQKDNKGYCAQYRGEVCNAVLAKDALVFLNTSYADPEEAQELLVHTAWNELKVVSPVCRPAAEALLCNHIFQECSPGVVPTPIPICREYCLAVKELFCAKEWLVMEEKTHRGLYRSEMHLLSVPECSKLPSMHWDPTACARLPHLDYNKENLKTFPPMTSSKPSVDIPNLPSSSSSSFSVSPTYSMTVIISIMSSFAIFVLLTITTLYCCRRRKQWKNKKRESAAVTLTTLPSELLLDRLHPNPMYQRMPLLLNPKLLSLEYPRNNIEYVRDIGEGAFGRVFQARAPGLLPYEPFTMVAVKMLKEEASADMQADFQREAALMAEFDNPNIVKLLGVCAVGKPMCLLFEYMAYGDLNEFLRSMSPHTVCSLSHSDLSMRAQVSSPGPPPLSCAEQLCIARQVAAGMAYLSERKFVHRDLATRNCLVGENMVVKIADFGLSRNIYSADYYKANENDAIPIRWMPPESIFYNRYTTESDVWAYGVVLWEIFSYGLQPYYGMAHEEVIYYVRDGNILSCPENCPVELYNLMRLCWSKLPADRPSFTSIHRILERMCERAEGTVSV
In words: Inhibitory activity against the kinase activity of MUSK protein (Test Example 7). Type of assay: biochemical. As to conditions: ATP 10 μM, reaction 1 hour, HTRF KinEASE-TK. On the set-up: purchased Carna Biosciences Inc., Japan. The protocol:
as §1, with “MUSK protein (Carna Biosciences Inc., Japan) was investigated for its phosphorylation activity toward a peptide substrate by using a kinase activity detection kit (HTRF KinEASE-TK; Cisbio Inc.). […] The ATP” for “The ATP”, “used was 10 μM. Another” for “used was 5 μM. Another”

Assay [3] has as its system human non-small cell lung cancer cell line HCC827 cells (mutant EGFR protein-expressing cells). The assay is described as follows: Inhibitory effect against anchorage-independent cell growth of HCC827 cells (Test Example 4). It counts as cell-based. The settings on record: 120 h, spheroid plate, 5 days, CellTiter-Glo.

Each structure is given as a SMILES string.

T1 sequence (P00533 25-1210 L858R): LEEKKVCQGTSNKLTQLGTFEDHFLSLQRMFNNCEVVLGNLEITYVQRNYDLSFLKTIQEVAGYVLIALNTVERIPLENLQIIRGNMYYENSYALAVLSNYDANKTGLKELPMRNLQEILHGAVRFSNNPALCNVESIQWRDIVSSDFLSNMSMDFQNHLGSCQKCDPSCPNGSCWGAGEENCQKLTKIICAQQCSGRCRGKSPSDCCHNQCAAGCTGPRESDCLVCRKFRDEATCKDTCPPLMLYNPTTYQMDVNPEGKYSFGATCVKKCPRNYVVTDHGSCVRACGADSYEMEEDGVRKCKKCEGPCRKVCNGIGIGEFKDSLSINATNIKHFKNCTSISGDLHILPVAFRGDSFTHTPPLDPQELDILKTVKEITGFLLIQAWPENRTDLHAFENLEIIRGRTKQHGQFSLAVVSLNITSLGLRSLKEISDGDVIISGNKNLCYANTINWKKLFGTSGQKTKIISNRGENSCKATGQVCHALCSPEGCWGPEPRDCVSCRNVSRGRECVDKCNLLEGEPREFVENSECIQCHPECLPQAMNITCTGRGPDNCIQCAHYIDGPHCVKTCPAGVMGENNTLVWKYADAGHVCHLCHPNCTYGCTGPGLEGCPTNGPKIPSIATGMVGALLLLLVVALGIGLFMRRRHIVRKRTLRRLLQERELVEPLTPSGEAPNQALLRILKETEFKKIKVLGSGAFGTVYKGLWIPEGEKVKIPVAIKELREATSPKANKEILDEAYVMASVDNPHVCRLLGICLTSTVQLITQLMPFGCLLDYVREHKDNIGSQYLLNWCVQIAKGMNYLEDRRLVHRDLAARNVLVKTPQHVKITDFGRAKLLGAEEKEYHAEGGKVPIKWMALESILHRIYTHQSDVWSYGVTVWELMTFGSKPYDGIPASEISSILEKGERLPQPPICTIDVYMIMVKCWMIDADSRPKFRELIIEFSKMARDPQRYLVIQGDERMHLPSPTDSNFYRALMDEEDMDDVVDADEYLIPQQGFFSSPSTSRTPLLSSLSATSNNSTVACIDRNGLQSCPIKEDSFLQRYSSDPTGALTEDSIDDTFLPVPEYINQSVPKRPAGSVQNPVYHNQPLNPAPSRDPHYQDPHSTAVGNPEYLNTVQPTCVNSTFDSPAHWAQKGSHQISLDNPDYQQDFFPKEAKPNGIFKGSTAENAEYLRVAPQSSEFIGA

For the compound `COc1cc(N2CCC(N3CCN(C)CC3)CC2)ccc1Nc1ncnc(Nc2ccccc2S(=O)(=O)C(C)C)n1` [Example 23], the “inhibition of the growth of NCI-H2228 cells (tumor)” value in the assay on NCI-H2228 cells (tumor) is 116%. Also, the IC50 in assay [1] was 120 nM; in assay [2], 71 nM; on MUSK it was 1500 nM; in assay [3], 272 nM.
For `CCNS(=O)(=O)c1ccccc1Nc1ncnc(Nc2ccc(N3CCC(N4CCN(C)CC4)CC3)cc2OC)n1` [Example 123], in that order: 108%, 100 nM, 30 nM, 1100 nM and 238 nM.

A word on the IC50: it is the concentration needed to halve the response being measured.
